Test results published in publication PMC5253331 (Biochemical and biophysical research communications, 2016).

Assays:
[1] = tested on: hPD-L1 cells (CHO stably expressing human PD-L1) vs CHO cells; assay: In vitro binding/uptake of [64Cu]WL12 in hPD-L1 and CHO cells; assay type: cell-based, Chinese hamster
hPD-L1 and CHO tumors = assay: Ex vivo biodistribution and blocking in NSG mice with hPD-L1 and CHO tumors; parameters: species or system mouse; conditions: co-injected with excess WL12 (50 μg, 2 mg/kg), 2 h
[2] = tested on: MDAMB231 and SUM149 cells; assay type: cell-based, human; conditions: MDAMB231 high, SUM149 low PD-L1 expression
[3] = target: recombinant human PD-L1(B7-H1)-His-tag protein (human) (UniProt Q9NZQ7); assay: AlphaScreen or HTRF
recombinant human PD-L1(B7-H1)-His-tag protein (human), sequence (Q9NZQ7 19-238): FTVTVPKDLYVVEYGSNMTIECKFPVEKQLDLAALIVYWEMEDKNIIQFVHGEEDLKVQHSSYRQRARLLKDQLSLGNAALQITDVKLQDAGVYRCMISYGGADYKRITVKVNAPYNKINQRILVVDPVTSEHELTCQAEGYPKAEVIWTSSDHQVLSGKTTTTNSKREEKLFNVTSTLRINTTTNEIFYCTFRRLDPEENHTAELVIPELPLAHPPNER

[4] = target: human PD-L1 on CHO cells stably expressing human PD-L1 (human) (UniProt Q9NZQ7); assay: ex vivo biodistribution with blocking dose
human PD-L1 on CHO cells stably expressing human PD-L1 (human), sequence (Q9NZQ7 19-290): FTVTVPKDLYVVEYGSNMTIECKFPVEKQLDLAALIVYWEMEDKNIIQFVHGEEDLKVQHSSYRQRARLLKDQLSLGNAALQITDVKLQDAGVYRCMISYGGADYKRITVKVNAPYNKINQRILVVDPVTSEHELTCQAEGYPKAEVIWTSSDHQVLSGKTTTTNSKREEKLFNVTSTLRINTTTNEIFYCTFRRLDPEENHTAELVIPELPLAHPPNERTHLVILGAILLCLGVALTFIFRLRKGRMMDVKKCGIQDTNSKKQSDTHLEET

[5] = target: human PD-L1 on CHO cells stably expressing human PD-L1 (human) (UniProt Q9NZQ7); assay: radioligand binding
[6] = target: human PD-L1 on CHO cells stably expressing human PD-L1 (human) (UniProt Q9NZQ7); assay: PET imaging and ex vivo biodistribution

CCCC[C@H]1C(=O)N(C)[C@@H](CCCC)C(=O)N[C@@H](CCCNC(=O)CCC(C(=O)O)N2CCN(CC(=O)O)CCN(CC(=O)O)CCN(CC(=O)O)CC2)C(=O)N[C@H](C(=O)NCC(N)=O)CSCC(=O)N[C@@H](Cc2ccc(O)cc2)C(=O)N(C)[C@@H](C)C(=O)N[C@@H](CC(N)=O)C(=O)N2CCC[C@H]2C(=O)N[C@@H](Cc2c[nH]cn2)C(=O)N[C@@H](CC(C)C)C(=O)N2C[C@H](O)C[C@H]2C(=O)N[C@@H](Cc2c[nH]c3ccccc23)C(=O)N[C@@H](CO)C(=O)N[C@@H](Cc2cn(C)c3ccccc23)C(=O)N1C (some centres unmarked) [[^64Cu]WL12, metal not drawn]
uptake of the incubated dose in hPD-L1 cells ([1]; hPD-L1 cells incubated with [64Cu]WL12 for 1 h): > 50% | reduction in bound [64Cu]WL12 in the presence of blocking dose of WL12 ([1]; hPD-L1 cells, 1 μM blocking dose of WL12): > 95% | increase in bound radioactivity in hPD-L1 cells compared to negative control CHO cells ([1]; incubation 1 h): 43 fold | change in %ID/g in control CHO tumors on blocking (hPD-L1 and CHO tumors): no significant difference | change in kidney uptake on blocking (hPD-L1 and CHO tumors): reduced uptake | uptake of radioactivity in MDAMB231 cells compared to SUM149 cells [2]: Two-fold higher

WL12 (peptide)
IC50 [3]: 22 nM | percent reduction in %ID/g of [64Cu]WL12 in hPD-L1 tumors with excess WL12 [4]: > 75%

WL12-Cu (peptide)
IC50 [3]: 2.9 nM

[64Cu]WL12 (peptide)
percent uptake of the incubated dose [5]: > 50% | tumor uptake at 1 h (%ID/g) [6]: 14.9 %ID/g
